Results taken from ChEMBL document CHEMBL3390836, “Mannich- and LedererManasse-based analogues of the natural product S-(+)-curcuphenol as cancer proliferation and migration inhibitors” (Medchemcomm, 2012).

Tests used:
Format in all cases: functional
SF-539 [1] = test: Cytotoxicity against human SF539 cells assessed as cell growth at 10^-8 M after 48 hrs by SRB assay relative to control; conditions: SF-539, 48 h, read-out: Activity
[2] = Cytotoxicity against human OVCAR8 cells assessed as cell growth at 10^-4 M after 48 hrs by SRB assay relative to control; conditions: OVCAR-8, 48 h, read-out: Activity
IGROV-1 [3] = test: Cytotoxicity against human IGROV1 cells assessed as cell growth at 10^-8 M after 48 hrs by SRB assay relative to control; conditions: IGROV-1, 48 h, read-out: Activity
786-0 [4] = test: Cytotoxicity against human 786-0 cells assessed as cell growth at 10^-6 M after 48 hrs by SRB assay relative to control; conditions: 786-0, 48 h, read-out: Activity
[5] = Cytotoxicity against human OVCAR3 cells after 48 hrs by SRB assay; conditions: OVCAR-3, 48 h
[6] = Cytotoxicity against human OVCAR4 cells after 48 hrs by SRB assay; conditions: OVCAR-4, 48 h
SK-MEL-5 [7] = test: Cytotoxicity against human SK-MEL-5 cells after 48 hrs by SRB assay; conditions: SK-MEL-5, 48 h
ACHN = test: Cytotoxicity against human ACHN cells after 48 hrs by SRB assay
MDA-MB-468 [8] = test: Cytotoxicity against human MDA-MB-468 cells after 48 hrs by SRB assay; conditions: MDA-MB-468, 48 h
K562 = test: Cytotoxicity against human K562 cells assessed as cell growth at 10^-6 M after 48 hrs by SRB assay relative to control; conditions: K562, 48 h, read-out: Activity
[9] = Cytotoxicity against human EKVX cells assessed as cell growth at 10^-8 M after 48 hrs by SRB assay relative to control; conditions: read-out: Activity
[10] = Cytotoxicity against human HCT15 cells assessed as cell growth at 10^-8 M after 48 hrs by SRB assay relative to control; conditions: HCT-15, 48 h, read-out: Activity
TK-10 = test: Cytotoxicity against human TK10 cells after 48 hrs by SRB assay; conditions: TK-10, 48 h
SK-MEL-28 [11] = test: Cytotoxicity against human SK-MEL-28 cells after 48 hrs by SRB assay; conditions: SK-MEL-28, 48 h
SF-539 [12] = test: Cytotoxicity against human SF539 cells assessed as cell growth at 10^-7 M after 48 hrs by SRB assay relative to control; conditions: SF-539, 48 h, read-out: Activity
[13] = Cytotoxicity against human OVCAR5 cells assessed as cell growth at 10^-6 M after 48 hrs by SRB assay relative to control; conditions: OVCAR-5, 48 h, read-out: Activity
SK-MEL-5 [14] = test: Cytotoxicity against human SK-MEL-5 cells assessed as cell growth at 10^-8 M after 48 hrs by SRB assay relative to control; conditions: SK-MEL-5, 48 h, read-out: Activity
786-0 [15] = test: Cytotoxicity against human 786-0 cells assessed as cell growth at 10^-8 M after 48 hrs by SRB assay relative to control; conditions: 786-0, 48 h, read-out: Activity
[16] = Cytotoxicity against human EKVX cells after 48 hrs by SRB assay
A498 = test: Cytotoxicity against human A498 cells assessed as cell growth at 10^-7 M after 48 hrs by SRB assay relative to control; conditions: A498, 48 h, read-out: Activity
HCC 2998 = test: Cytotoxicity against human HCC2998 cells after 48 hrs by SRB assay; conditions: HCC 2998, 48 h
[17] = Cytotoxicity against human OVCAR3 cells assessed as cell growth at 10^-7 M after 48 hrs by SRB assay relative to control; conditions: OVCAR-3, 48 h, read-out: Activity
IGROV-1 [18] = test: Cytotoxicity against human IGROV1 cells after 48 hrs by SRB assay; conditions: IGROV-1, 48 h
U-251 = test: Cytotoxicity against human U251 cells after 48 hrs by SRB assay; conditions: U-251, 48 h
[19] = Cytotoxicity against human SKOV3 cells assessed as cell growth at 10^-6 M after 48 hrs by SRB assay relative to control; conditions: SK-OV-3, 48 h, read-out: Activity
COLO 205 = test: Cytotoxicity against human COLO205 cells after 48 hrs by SRB assay; conditions: COLO 205, 48 h
[20] = Cytotoxicity against human NCI-ADR-RES cells assessed as cell growth at 10^-4 M after 48 hrs by SRB assay relative to control; conditions: read-out: Activity
[21] = Cytotoxicity against human UO31 cells assessed as cell growth at 10^-8 M after 48 hrs by SRB assay relative to control; conditions: UO-31, 48 h, read-out: Activity
MDA-MB-468 [22] = test: Cytotoxicity against human MDA-MB-468 cells assessed as cell growth at 10^-7 M after 48 hrs by SRB assay relative to control; conditions: MDA-MB-468, 48 h, read-out: Activity
[23] = Cytotoxicity against human NCI-ADR-RES cells after 48 hrs by SRB assay
SF-539 [24] = test: Cytotoxicity against human SF539 cells assessed as cell growth at 10^-4 M after 48 hrs by SRB assay relative to control; conditions: SF-539, 48 h, read-out: Activity
Malme-3M = test: Cytotoxicity against human MALME-3M cells assessed as cell growth at 10^-8 M after 48 hrs by SRB assay relative to control; conditions: read-out: Activity
[25] = Cytotoxicity against human SKOV3 cells after 48 hrs by SRB assay; conditions: SK-OV-3, 48 h
SNB-19 = test: Cytotoxicity against human SNB19 cells assessed as cell growth at 10^-6 M after 48 hrs by SRB assay relative to control; conditions: SNB-19, 48 h, read-out: Activity
T47D = test: Cytotoxicity against human T47D cells assessed as cell growth at 10^-6 M after 48 hrs by SRB assay relative to control; conditions: read-out: Activity
SK-MEL-28 [26] = test: Cytotoxicity against human SK-MEL-28 cells assessed as cell growth at 10^-6 M after 48 hrs by SRB assay relative to control; conditions: SK-MEL-28, 48 h, read-out: Activity
[27] = read-out: LC50 (the source's name)

Q: What does the source list for `COc1ccc(CCN2COc3c([C@@H](C)CCC=C(C)C)ccc(C)c3C2)cc1OC`?
A: growth at 0.01 µM (SF-539 [1]): 95%; growth at 100 µM [2]: -54%; growth at 0.01 µM (IGROV-1 [3]): 119%; growth at 1 µM (786-0 [4]): 96%; GI50 [5]: 3.55 µM; LC50 [5]: 40.1 µM; TGI [5]: 14.1 µM; GI50 [6]: 2.89 µM; LC50 [6]: > 100 µM; TGI [6]: 16 µM; GI50 (SK-MEL-5 [7]): 1.64 µM; LC50 (SK-MEL-5 [7]): 5.66 µM; TGI (SK-MEL-5 [7]): 3.04 µM; GI50 (ACHN): 6.11 µM; LC50 (concentration killing 50% of cells) (ACHN): 48.1 µM; TGI (ACHN): 20.2 µM; GI50 (MDA-MB-468 [8]): 1.23 µM; LC50 (MDA-MB-468 [8]): 7.08 µM; TGI (MDA-MB-468 [8]): 9.95 µM; growth at 1 µM (K562): 98%; growth at 0.01 µM [9]: 93%; growth at 0.01 µM [10]: 85%; GI50 (TK-10): 2.19 µM; LC50 (TK-10): 24.6 µM; TGI (TK-10): 5.95 µM; GI50 (SK-MEL-28 [11]): 2.21 µM; TGI (SK-MEL-28 [11]): 4.94 µM; CC50 (SK-MEL-28 [11]; [27]): 13.3 µM; growth at 0.1 µM (SF-539 [12]): 88%; growth at 1 µM [13]: 97%; growth at 0.01 µM (SK-MEL-5 [14]): 96%; growth at 0.01 µM (786-0 [15]): 101%; GI50 [16]: 5.14 µM; LC50 [16]: > 100 µM; TGI [16]: 25.4 µM; growth at 0.1 µM (A498): 97%; GI50 (HCC 2998): 1.59 µM; TGI (HCC 2998): 2.96 µM; CC50 (HCC 2998; [27]): 5.49 µM; growth at 0.1 µM [17]: 91%; GI50 (IGROV-1 [18]): 1.08 µM; LC50 (concentration killing 50% of cells) (IGROV-1 [18]): 12.7 µM; TGI (IGROV-1 [18]): 3.52 µM; GI50 (U-251): 1.91 µM; LC50 (U-251): 11.2 µM; TGI (U-251): 4.47 µM; growth at 1 µM [19]: 102%; GI50 (COLO 205): 1.79 µM; TGI (COLO 205): 3.19 µM; CC50 (COLO 205; [27]): 5.7 µM; growth at 100 µM [20]: -90%; growth at 0.01 µM [21]: 86%; growth at 0.1 µM (MDA-MB-468 [22]): 60%; GI50 [23]: 2.96 µM; LC50 (lethal concentration, 50% cell kill) [23]: 35.2 µM; TGI [23]: 9.51 µM; growth at 100 µM (SF-539 [24]): -100%; growth at 0.01 µM (Malme-3M): 91%; GI50 [25]: 11.8 µM; LC50 (concentration killing 50% of cells) [25]: 81.8 µM; TGI [25]: 31.1 µM; growth at 1 µM (SNB-19): 95%; growth at 1 µM (T47D): 88%; growth at 1 µM (SK-MEL-28 [26]): 99%
